Results reported in ChEMBL document CHEMBL1137334 (J Med Chem, 2006).
Converted amounts (≈) assume the structure as drawn.

What was measured:
[1] = AUC (0-24h) in mouse at 20 mg/kg, po; assay type: ADME, organism-based; parameters: time < 24 hr, dose 20 mg/kg, route oral; conditions: plasma
[2] = tested on: A549; test: Inhibition of A549 cell migration by microdroplet migration assay; assay type: functional, cell-based; conditions: Homo sapiens
[3] = biological target: Proto-oncogene tyrosine-protein kinase Src (Homo sapiens, UniProt P12931)
Chain of Proto-oncogene tyrosine-protein kinase Src (P12931 2-536 limits assumed): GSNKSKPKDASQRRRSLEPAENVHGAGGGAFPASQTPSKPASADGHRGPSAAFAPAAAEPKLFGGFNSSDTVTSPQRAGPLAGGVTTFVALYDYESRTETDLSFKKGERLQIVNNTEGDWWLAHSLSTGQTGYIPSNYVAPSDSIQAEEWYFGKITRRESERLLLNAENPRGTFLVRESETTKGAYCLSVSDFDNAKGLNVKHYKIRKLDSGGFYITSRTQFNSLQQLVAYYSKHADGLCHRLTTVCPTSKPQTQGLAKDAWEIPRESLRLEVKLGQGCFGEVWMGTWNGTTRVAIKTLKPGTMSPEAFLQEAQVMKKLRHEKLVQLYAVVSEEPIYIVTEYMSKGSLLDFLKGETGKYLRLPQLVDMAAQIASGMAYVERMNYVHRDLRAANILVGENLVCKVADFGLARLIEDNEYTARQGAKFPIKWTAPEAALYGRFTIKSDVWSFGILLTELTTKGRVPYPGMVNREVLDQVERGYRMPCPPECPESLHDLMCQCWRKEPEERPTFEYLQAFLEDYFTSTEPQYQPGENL
Description: Inhibition of human c-Src in NIH3T3 cells

[4] = biological target: Vascular endothelial growth factor receptor 2 (Homo sapiens, UniProt P35968); test: Inhibition of KDR
Chain of Vascular endothelial growth factor receptor 2 (P35968 whole entry): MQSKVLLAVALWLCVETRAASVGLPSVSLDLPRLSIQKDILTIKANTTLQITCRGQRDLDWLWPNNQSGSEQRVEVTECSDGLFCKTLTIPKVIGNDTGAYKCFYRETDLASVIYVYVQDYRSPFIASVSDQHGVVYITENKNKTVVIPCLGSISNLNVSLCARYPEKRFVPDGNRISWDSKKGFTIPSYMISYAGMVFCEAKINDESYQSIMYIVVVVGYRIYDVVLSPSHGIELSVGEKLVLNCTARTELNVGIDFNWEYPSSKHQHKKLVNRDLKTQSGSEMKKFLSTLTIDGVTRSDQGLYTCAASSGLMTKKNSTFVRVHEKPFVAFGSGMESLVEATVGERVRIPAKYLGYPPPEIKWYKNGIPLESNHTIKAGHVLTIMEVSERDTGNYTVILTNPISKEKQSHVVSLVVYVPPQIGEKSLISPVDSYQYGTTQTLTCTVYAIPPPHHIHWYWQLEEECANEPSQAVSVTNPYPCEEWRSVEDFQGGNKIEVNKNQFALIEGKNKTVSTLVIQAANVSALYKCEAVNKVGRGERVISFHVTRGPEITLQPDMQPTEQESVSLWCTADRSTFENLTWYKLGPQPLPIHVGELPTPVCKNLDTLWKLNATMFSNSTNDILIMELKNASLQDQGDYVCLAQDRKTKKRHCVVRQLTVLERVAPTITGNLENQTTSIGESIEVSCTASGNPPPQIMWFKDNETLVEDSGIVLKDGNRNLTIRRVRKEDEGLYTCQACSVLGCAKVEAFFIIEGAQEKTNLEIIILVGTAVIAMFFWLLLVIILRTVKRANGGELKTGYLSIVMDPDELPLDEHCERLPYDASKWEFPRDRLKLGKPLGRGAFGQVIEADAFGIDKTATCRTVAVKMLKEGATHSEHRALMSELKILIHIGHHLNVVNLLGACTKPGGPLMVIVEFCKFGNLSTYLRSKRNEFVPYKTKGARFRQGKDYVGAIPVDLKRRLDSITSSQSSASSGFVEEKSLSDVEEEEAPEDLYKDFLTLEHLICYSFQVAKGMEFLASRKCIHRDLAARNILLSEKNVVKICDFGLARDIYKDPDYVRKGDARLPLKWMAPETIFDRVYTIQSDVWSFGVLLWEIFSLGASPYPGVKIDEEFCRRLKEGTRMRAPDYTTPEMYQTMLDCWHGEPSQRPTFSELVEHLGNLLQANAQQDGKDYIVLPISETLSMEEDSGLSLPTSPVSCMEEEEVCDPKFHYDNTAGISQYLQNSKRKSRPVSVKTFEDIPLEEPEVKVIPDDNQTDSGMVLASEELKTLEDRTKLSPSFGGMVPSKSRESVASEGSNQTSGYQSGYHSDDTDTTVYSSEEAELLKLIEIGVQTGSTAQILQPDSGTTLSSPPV

[5] = Dissociation constant, pKa of the basic side chain of compound; assay type: physicochemical
[6] = Lipophilicity, log D at pH 7.4; assay type: physicochemical; conditions: buffer
[7] = Aqueous solubility at pH 7.4; assay type: physicochemical
[8] = Percent of unbound ligand in rat plasma; assay type: ADME, organism-based
[9] = organism: Canis familiaris; test: Half life in male dog; assay type: ADME, organism-based, Canis lupus familiaris; conditions: in vivo
[10] = organism: Canis familiaris; test: Volume of distribution in male dog; assay type: ADME, organism-based, Canis lupus familiaris; conditions: in vivo
[11] = Bioavailability in male dog; assay type: ADME, organism-based, Canis lupus familiaris; conditions: in vivo

| SMILES | IC50 [2] [nM] | IC50 [3] [nM] | IC50 [4] [nM] | other results |
| --- | --- | --- | --- | --- |
| COc1cc2c(Nc3c(Cl)ccc4c3OCO4)ncnc2cc1OCC1CCN(C)CC1 | – | – | – | AUC(0-t) at 24 h [1]: 38000 ng·h/mL |
| COc1ccc(Cl)c(Nc2ncnc3cc(OCCCN4CCOCC4)cc(OC4CCOCC4)c23)c1 | 80 | 20 | – | – |
| CC(C)COc1cc(OC2CCN(C)CC2)c2c(Nc3c(Cl)ccc4c3OCO4)ncnc2c1 | 200 | 7 | > 10000 | AUC(0-t) at 24 h [1]: 600 ng·h/mL |
| CC(C)Oc1cc(OCCCN2CCCC2)cc2ncnc(Nc3c(Cl)ccc4c3OCO4)c12 | 150 | < 4 | 1200 | – |
| COc1cc(OC2CCN(C)CC2)c2c(Nc3c(Cl)ccc4c3OCO4)ncnc2c1 | 150 | 10 | 21500 | pKa [5]: 8.2; logD [6]: 2.9; solubility [7]: > 1000 µM; fraction unbound [8]: 0.25; AUC(0-t) at 24 h [1]: 50 ng·h/mL |
| c1cc(Nc2ncnc3cc(OCCCN4CCCC4)cc(OC4CCOCC4)c23)c2c(c1)OCO2 | – | 40 | 100 | – |
| CN1CCN(CCOc2cc(OC3CCOCC3)c3c(Nc4c(Cl)ccc5c4OCCO5)ncnc3c2)CC1 | – | 65 | – | – |
| Clc1ccc2c(c1Nc1ncnc3cc(OCCN4CCCC4)cc(OC4CCOCC4)c13)OCCO2 | – | 110 | – | – |
| Clc1ccc2c(c1Nc1ncnc3cccc(Oc4ccncc4)c13)OCO2 | 500 | 55 | > 33000 | – |
| COc1cc(OCCCN2CCCC2)cc2ncnc(Nc3c(Cl)ccc4c3OCO4)c12 | – | 15 | – | – |
| COc1ccc(Cl)c(Nc2ncnc3cc(OC)c(OC)cc23)c1 | – | 250 | – | – |
| CN1CCN(CCCOc2cc(OC3CCOCC3)c3c(Nc4c(Cl)ccc5c4OCO5)ncnc3c2)CC1 | 200 | < 4 | 1000 | – |
| COc1ccc(Cl)c(Nc2ncnc3cc(OC)cc(OC)c23)c1 | – | 3700 | – | – |
| COc1cc(Oc2ccncc2)c2c(Nc3c(Cl)ccc4c3OCO4)ncnc2c1 | 150 | 9.5 | 21500 | AUC(0-t) at 24 h [1]: 100 ng·h/mL |
| Clc1ccc2c(c1Nc1ncnc3cc(OCCc4ccncc4)cc(OC4CCOCC4)c13)OCO2 | 70 | 3 | > 5000 | pKa [5]: 6.4; logD [6]: > 3.1; solubility [7]: 1.5 µM (≈ 0.781 µg/mL); fraction unbound [8]: 0.017; AUC(0-t) at 24 h [1]: 6000 ng·h/mL |
| CN1CCC(Oc2cc(OCCF)cc3ncnc(Nc4c(Cl)ccc5c4OCO5)c23)CC1 | 90 | 4 | > 20000 | – |
| COc1ccc(Cl)c(Nc2ncnc3cc(OCCCN4CCOCC4)cc(OC4CCCCC4)c23)c1 | 2500 | 20 | 5500 | – |
| COc1ccc(Cl)c(Nc2ncnc3ccc(OC)c(OC4CCN(C)CC4)c23)c1 | – | 540 | – | – |
| COc1ccc(Cl)c(Nc2ncnc3cc(OCCCN4CCN(C)CC4)cc(OC4CCOCC4)c23)c1 | 300 | < 4 | 40 | – |
| COc1cc(OC2CCN(C)CC2)c2c(Nc3cccc4c3OCCO4)ncnc2c1 | – | 570 | 500 | – |

| SMILES | IC50 [2] [nM] | IC50 [3] [nM] | IC50 [4] [nM] | other results |
| --- | --- | --- | --- | --- |
| CC(C)Oc1cc(OC2CCN(C)CC2)c2c(Nc3c(Cl)ccc4c3OCO4)ncnc2c1 | – | 100 | – | – |
| c1cc(Nc2ncnc3cc(OCCN4CCCC4)cc(OC4CCOCC4)c23)c2c(c1)OCCO2 | – | 85 | 50 | – |
| COc1ccc(Cl)c(Nc2ncnc3cc(OC)cc(OCCCN4CCOCC4)c23)c1 | – | 230 | – | – |
| COc1ccc(Cl)c(Nc2ncnc3cc(OCCCN4CCOCC4)cc(OC(C)C)c23)c1 | 400 | – | – | – |
| CN1CCC(Oc2cccc3ncnc(Nc4c(Cl)ccc5c4OCO5)c23)CC1 | 700 | 100 | – | – |
| COc1cc(OC2CCN(C)CC2)c2c(Nc3cccc4c3OCO4)ncnc2c1 | – | 150 | 2500 | – |
| COc1ccc(Cl)c(Nc2ncnc3cc(OC)cc(OC4CCN(C)CC4)c23)c1 | 300 | 30 | > 2000 | – |
| COc1ccc(Cl)c(Nc2ncnc3cccc(OC4CCOCC4)c23)c1 | – | 400 | – | – |
| Clc1ccc2c(c1Nc1ncnc3cc(OCCN4CCCC4)cc(OC4CCOCC4)c13)OCO2 | 300 | 6 | > 10000 | AUC(0-t) at 24 h [1]: 9000 ng·h/mL |
| COc1cc2c(Nc3c(Cl)ccc4c3OCO4)ncnc2cc1OCCCN1CCCC1 | – | 5 | – | AUC(0-t) at 24 h [1]: 13000 ng·h/mL |
| c1cc(Nc2ncnc3cc(OCCN4CCCC4)cc(OC4CCOCC4)c23)c2c(c1)OCO2 | – | 80 | 650 | – |
| COc1ccc(Cl)c(Nc2ncnc3cccc(OC4CCN(C)CC4)c23)c1 | – | 300 | > 5000 | – |
| CC(=O)N1CCN(CCOc2cc(OC(C)C)c3c(Nc4c(F)ccc5c4OCO5)ncnc3c2)CC1 | 290 | 20 | 6500 | – |
| Clc1ccc2c(c1Nc1ncnc3cc(OCCN4CCCC4)cc(N4CCOCC4)c13)OCO2 | 1200 | 75 | 5000 | – |
| COc1ccc(Cl)c(Nc2ncnc3ccc(OCCCN4CCN(C)CC4)c(OC4CCOCC4)c23)c1 | – | 600 | – | – |
| CC(C)Oc1cc(OCCN2CCOCC2)cc2ncnc(Nc3c(Cl)ccc4c3OCO4)c12 | 100 | 5 | 10000 | pKa [5]: 6.5; logD [6]: 3.7; solubility [7]: 2 µM (≈ 0.974 µg/mL); fraction unbound [8]: 0.025 |
| CN1CCC(COc2cccc3ncnc(Nc4c(Cl)ccc5c4OCO5)c23)CC1 | – | 500 | – | – |
| COc1ccc(Cl)c(Nc2ncnc3cc(OCCCN4CCOCC4)cc(OC4CCOC4)c23)c1 (racemic) | – | < 4 | 50 | – |
| COc1ccc(Cl)c(Nc2ncnc3cc(OCC4CCN(C)CC4)c(OC)cc23)c1 [AZM-475271] | 480 | – | – | pKa [5]: 9; logD [6]: 2; solubility [7]: 324 µM (≈ 144 µg/mL); fraction unbound [8]: 0.075; T1/2 [9]: 4.2 h; Vdss [10]: 43 L/kg; bioavailability [11]: 42% |
